From patent US8586505B2 (SDS Biotech K. K., priority 2009, dated 2013)
Read-outs that look alike come from different tables or passages of the source.

What was measured:
Format in all cases: in vivo
Phytophthora infestans = assay: whole plant or invertebrate; settings: in Solanum lycopersicum, 96 h, read-out: Determination of control effect (preventive value)
Sphaerotheca fuliginea = assay: Test of examining control effect on Sphaerotheca fuliginea (potted cucumber plants); settings: Podosphaera fuliginea, 336 h, 10% wettable powder adjusted to 125 ppm, 15 ml/pot sprayed on potted cucumber plants one day before spray inoculation, assessed after 14 days in greenhouse, read-out: Determination of control effect (preventive value) on Sphaerotheca fuliginea
Protocol: (§1) Calculation of Preventive Value: Preventive value={(untreated lesion area rate−treated lesion area rate)/untreated lesion area rate}×100
(§2) Using the thus calculated preventive value, the control effect of each compound was determined in accordance with the following standards.
(§3) High control effect: 100%≧preventive value≧60%
(§4) Low control effect: 60%>preventive value≧0%
Using a spray gun, an agent solution prepared by adjusting a 10% wettable powder of each sample compound to 125 ppm (hereinafter referred to as a “sample agent solution”) was sprayed to potted cucumber plants (variety: Sagamihanjiro, 2nd leave stage) in a concentration of 15 ml/pot. One day after the spraying, a conidial suspension of Sphaerotheca fuliginea (conidial concentration: 1.0×10^5 cells/ml) was applied to the plants by spray inoculation. The plants were left in a greenhouse for 14 days, so that they were fully infected with the aforementioned disease. Thereafter, the disease level on each leaf was compared with that on an untreated leaf, and the control effect of each compound was determined in the same manner as in Example 3(1).

[1] = test system: Pseudoperonospora cubensis; assay: Test of examining control effect on Pseudoperonospora cubensis (potted cucumber plants); settings: 96 h, 10% wettable powder adjusted to 125 ppm, 15 ml/pot sprayed on potted cucumber plants one day before spray inoculation, assessed after 1 day wet chamber and 3 days greenhouse, read-out: Determination of control effect (preventive value) on Pseudoperonospora cubensis
Protocol: as §1, §2, §3, §4
Using a spray gun, an agent solution prepared by adjusting a 10% wettable powder of each sample compound to 125 ppm (hereinafter referred to as a “sample agent solution”) was sprayed to potted cucumber plants (variety: Sagamihanjiro, 2.5 leave stage) in a concentration of 15 ml/pot. One day after the spraying, a conidial suspension of Pseudoperonospora cubensis (conidial concentration: 1.0×10^4 cells/ml) was applied to the plants by spray inoculation. After completion of the inoculation, the plants were left at 21° C. under wet chamber conditions for 1 day, and were then left in a greenhouse for 3 days, so that they were fully infected with the aforementioned disease. Thereafter, the disease level on each leaf was compared with that on an untreated leaf, and the control effect of each compound was determined in the same manner as in Example 3(1).

SMILES | pest or weed control at 125 ppm (Phytophthora infestans) | pest or weed control at 125 µg/mL (Sphaerotheca fuliginea) | pest or weed control at 125 µg/mL [1] | pest or weed control at 125 µg/mL (Sphaerotheca fuliginea; in Cucumis sativus) | pest or weed control at 125 µg/mL ([1]; in Cucumis sativus)
C#CCOCc1nc(C#CCCNc2ncnc3sccc23)cs1 [compound 74] | 60 to 100% | 60 to 100% | 60 to 100% | – | –
CCOCc1ccccc1C#CCCNc1ncnc2ccccc12 [compound 153] | 60 to 100% | 0 to 60% | 60 to 100% | – | –
N#Cc1ccccc1Oc1nc(C#CCCNc2ncnc3ccccc23)cs1 [compound 221] | 0 to 60% | 60 to 100% | 60 to 100% | – | –
Cc1cc(NCCC#Cc2ccc(Cl)cc2C(F)(F)F)ncn1 [compound 359] | 0 to 60% | 0 to 60% | 0 to 60% | – | –
Fc1ccc(C(F)(F)F)c(C#CCCNc2ncnc3ccccc23)c1 [compound 168] | 60 to 100% | 60 to 100% | 60 to 100% | – | –
COc1cc(OC)nc(C#CCCNc2ncnc3sccc23)n1 [compound 60] | 60 to 100% | 0 to 60% | 60 to 100% | – | –
COCc1ccsc1C#CCCNc1ncnc2ccccc12 [compound 207] | 60 to 100% | 60 to 100% | 60 to 100% | – | –
CC(CC#Cc1ccc(F)cc1CO)Nc1ncnc2sccc12 (stereo not drawn) [compound 244] | 60 to 100% | 60 to 100% | 60 to 100% | – | –
CSc1ccc(C#CCCNc2ncnc3ccccc23)cc1 [compound 117] | 60 to 100% | 60 to 100% | 60 to 100% | – | –
COc1ccc2nc(C#CCCNc3ncnc4sccc34)sc2c1 [compound 85] | 60 to 100% | 60 to 100% | 60 to 100% | – | –
CNC(=O)c1ccc(C#CCCNc2ncnc3ccccc23)cc1 [compound 126] | 60 to 100% | 0 to 60% | 60 to 100% | – | –
CCC(CC#Cc1ccc(F)cc1)Nc1ncnc2ccccc12 (stereo not drawn) [compound 294] | 0 to 60% | 60 to 100% | 60 to 100% | – | –
CN(C)S(=O)(=O)c1ccccc1C#CCCNc1ncnc2ccccc12 [compound 161] | 60 to 100% | 0 to 60% | 60 to 100% | – | –
Cc1ccc(C#CCCNc2ncnc3ccccc23)s1 [compound 206] | 60 to 100% | 0 to 60% | 60 to 100% | – | –
CCOC(=O)C(CC#Cc1ccccc1)Nc1ncnc2ccccc12 (stereo not drawn) [compound 303] | 0 to 60% | – | – | 0 to 60% | 60 to 100%
OCc1ccccc1C#CCCNc1ncnc2ccccc12 [compound 130] | 60 to 100% | 60 to 100% | 60 to 100% | – | –
CC(CC#Cc1ccccc1C(F)(F)F)Nc1ncnc2c(F)cccc12 (stereo not drawn) [compound 343] | 60 to 100% | 60 to 100% | 60 to 100% | – | –
CC[Si](C#CCCNc1ncnc2sccc12)(CC)CC [compound 3] | 0 to 60% | 60 to 100% | 60 to 100% | – | –
CCOC(OCC)c1ccccc1C#CCCNc1ncnc2ccccc12 [compound 150] | 0 to 60% | 0 to 60% | 0 to 60% | – | –
COC(=O)N(OC)c1ccccc1C#CCCNc1ncnc2ccccc12 [compound 125] | 60 to 100% | 0 to 60% | 60 to 100% | – | –
CCc1ccccc1C#CCCNc1ncnc2ccccc12 [compound 103] | 60 to 100% | 60 to 100% | 60 to 100% | – | –
CC(CC#Cc1ccc(C(F)(F)F)cc1Cl)Nc1ncnc2ccccc12 (stereo not drawn) [compound 282] | 0 to 60% | 60 to 100% | 60 to 100% | – | –
